Experimental data taken from patent US20100234377A1 (priority 2007, published 2010).

These compounds were tested against T1, human Prostaglandin D Synthase (GST2) (Homo sapiens, UniProt O60760) (assay: Homogeneous biochemical assay of human Prostaglandin D Synthase (GST2) based on its glutathion-S-transferase activity (GSH conjugation to monochlorobimane, fluorescence)). Conditions: given beside the compound name in Examples 1 to 167; read-out: Potency Range (GST2 IC50).
T1 construct: the open reading frame of human Prostaglandin D Synthase was amplified from cDNA; made in house; host or cells: E. coli TOP10F'
T1 sequence (O60760 whole entry): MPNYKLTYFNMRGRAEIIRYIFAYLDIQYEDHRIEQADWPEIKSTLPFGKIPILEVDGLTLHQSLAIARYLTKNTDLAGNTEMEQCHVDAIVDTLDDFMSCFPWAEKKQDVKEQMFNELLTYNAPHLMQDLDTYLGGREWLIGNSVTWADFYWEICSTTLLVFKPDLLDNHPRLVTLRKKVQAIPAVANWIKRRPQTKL
From the text: Homogeneous, Biochemical Assay Monitoring the Activity of Human Prostaglandin D Synthase Based on the Glutathion-S-Transferase Activity of the Enzyme
Prostaglandin D2 synthesis by Prostaglandin D synthase (GST2) requires transfer of Glutathion (GSH) to the substrate, Prostaglandin H2. […] Since the Prostaglandin D2 synthesis is absolutely dependent on the GST activity of the enzyme, assays monitoring the GST activity should allow to identify specific inhibitors of Prostaglandin D2 synthetic activity. The assay principle used is based on enzymatic conjugation of GSH to Monochlorobimane (MCB), that becomes fluorescent upon this chemical modification. Therefore, the enzymatic reaction can be monitored by total fluorescence measurement.
In brief, the open reading frame of human Prostaglandin D Synthase was amplified from cDNA using the primer pair:
This construct allows prokaryotic expression of Prostaglandin D Synthase as fusion protein with a N-terminal hexa-histidine tag, referred to as NHis-Prostaglandin D Synthase.
Expression of NHis-Prostaglandin D Synthase was in E. coli TOP10F′ (Invitrogen, Germany, cat. no. C3030-03). […] When the culture had reached a density corresponding to an A600 of 0.6, an equal volume of room temperature LB/ampicillin was added. […] Cells harvested by centrifugation were resuspended in 50 mM tris(hydroxymethyl)aminomethane hydrochloride pH 7.5 (Tris/HCl, Sigma, cat. no. T5941).
Removal of unbound material was with 100 ml lysis buffer. Elution was with 50 ml of 50 mM Tris/HCl pH 7.5, 300 mM imidazol (Sigma, Germany, cat. no. I2399)/HCl pH 7.5). […] Aliquots were shock frozen in liquid nitrogen and stored at −80° C.
All assay components were diluted in reaction buffer, 50 mM MES/KOH (pH 6.1), 0.7 mM GSH (Sigma, G4251), 2 mM MgCl2 (Sigma, M2670), 0.05% Pluronic F127 (Sigma, P2443), and stored on ice prior to use. Compounds were diluted in 90% DMSO yielding final assay concentrations from the picomolar to three digit micromolar range.
Total fluorescent measurement was carried out with excitation and emission wavelength of 390 and 460 nm, respectively (BMG Fluostar Optima).
Compound O=C(Nc1ccc(Br)c(-c2ccncc2)c1)N1CCN(C(=O)c2cccc(F)c2)CC1 [Compound 43, 4-(3-Fluoro-benzoyl)-piperazine-1-carboxylic acid (4-bromo-3-pyridin-4-yl-phenyl)-amide] has an IC50 of 11 to 100 nM. Work on O=C(Nc1ccc(Oc2cccnc2)nc1)N1CCN(C(=O)c2cccc(F)c2)CC1 [Compound 44, 4-(3-Fluoro-benzoyl)-piperazine-1-carboxylic acid [6-(pyridin-3-yloxy)-pyridin-3-yl]-amide] yielded an IC50 of 101 to 1000 nM. O=C(Nc1cnc2ccccc2c1)N1CCN(C(=O)c2cccc(F)c2)CC1 [Compound 45, 4-(3-Fluoro-benzoyl)-piperazine-1-carboxylic acid quinolin-3-ylamide] was tested, and the IC50 was 101 to 1000 nM. Work on CC(C)(C)OC(=O)N1CCN(c2ccc(NC(=O)N3CCN(C(=O)c4cccc(F)c4)CC3)cc2F)CC1 [Compound 46, 4-(2-Fluoro-4-{[4-(3-fluoro-benzoyl)-piperazine-1-carbonyl]-amino}-phenyl)-piperazine-1-carboxylic acid tert-butyl ester] yielded an IC50 of 11 to 100 nM. O=C(Nc1ccc(N2CCOCC2)c(F)c1)N1CCN(C(=O)c2cc(F)ccc2F)CC1 [Compound 47, 4-(2,5-Difluoro-benzoyl)-piperazine-1-carboxylic acid (3-fluoro-4-morpholin-4-yl-phenyl)-amide] showed an IC50 of 101 to 1000 nM. In the case of CC(C)(C)OC(=O)N1CCN(c2ccc(NC(=O)N3CCN(C(=O)c4cc(F)ccc4F)CC3)cc2F)CC1 [Compound 48, 4-(4-{[4-(2,5-Difluoro-benzoyl)-piperazine-1-carbonyl]-amino}-2-fluoro-phenyl)-piperazine-1-carboxylic acid tert-butyl ester], the IC50 is reported as 101 to 1000 nM. For O=C(Nc1ccc([N+](=O)[O-])cc1)N1CCN(C(=O)c2cc(F)ccc2F)CC1 [Compound 49, 4-(2,5-Difluoro-benzoyl)-piperazine-1-carboxylic acid (4-nitro-phenyl)-amide], the IC50 was 101 to 1000 nM. Work on CCCCNC(=O)N1CCN(c2ccc(NC(=O)N3CCN(C(=O)c4cccc(F)c4)CC3)cc2F)CC1 [Compound 53] yielded an IC50 of 11 to 100 nM. O=C(Nc1ccc(N2CCN(C(=O)NC3CCCC3)CC2)c(F)c1)N1CCN(C(=O)c2cccc(F)c2)CC1 [Compound 54, N-{4-[4-(cyclopentylcarbamoyl)piperazin-1-yl]-3-fluorophenyl}-4-(3-fluorobenzoyl)piperazine-1-carboxamide] gave an IC50 of 11 to 100 nM. Compound CC(C)NC(=O)N1CCN(c2ccc(NC(=O)N3CCN(C(=O)c4cc(F)ccc4F)CC3)cc2F)CC1 [Compound 55, 4-(2,5-difluorobenzoyl)-N-{3-fluoro-4-[4-(isopropylcarbamoyl)piperazin-1-yl]phenyl}piperazine-1-carboxamide] has an IC50 of 101 to 1000 nM. For CC(C)(C)C(=O)N1CCN(c2ccc(NC(=O)N3CCN(C(=O)c4cccc(F)c4)CC3)cc2F)CC1 [Compound 56, 4-(3-Fluoro-benzoyl)-piperazine-1-carboxylic acid {4-[4-(2,2-dimethyl-propionyl)-piperazin-1-yl]-3-fluoro-phenyl}-amide], the IC50 was 11 to 100 nM. With CC(C)C(=O)N1CCN(c2ccc(NC(=O)N3CCN(C(=O)c4cccc(F)c4)CC3)cc2F)CC1 [Compound 57, 4-(3-Fluoro-benzoyl)-piperazine-1-carboxylic acid [3-fluoro-4-(4-isobutyryl-piperazin-1-yl)-phenyl]-amide] the IC50 was 11 to 100 nM. With CC(C)C(=O)N1CCN(c2ccc(NC(=O)N3CCN(C(=O)c4cc(F)ccc4F)CC3)cc2F)CC1 [Compound 58, 4-(2,5-Difluoro-benzoyl)-piperazine-1-carboxylic acid [3-fluoro-4-(4-isobutyryl-piperazin-1-yl)-phenyl]-amide] the IC50 was 101 to 1000 nM. Compound CC(=O)N1CCN(c2ccc(NC(=O)N3CCN(C(=O)c4cccc(F)c4)CC3)cc2)CC1 [Compound 61] has an IC50 of 101 to 1000 nM. Work on Cc1cc(NC(=O)N2CCN(C(=O)c3cccc(F)c3)CC2)no1 [Compound 62, 4-(3-Fluoro-benzoyl)-piperazine-1-carboxylic acid (5-methyl-isoxazol-3-yl)-amide] yielded an IC50 of 101 to 1000 nM. O=C(Nc1nc2ccccc2[nH]1)N1CCN(C(=O)c2cccc(F)c2)CC1 [Compound 64, 4-(3-Fluoro-benzoyl)-piperazine-1-carboxylic acid (1H-benzoimidazol-2-yl)-amide] gave an IC50 of 101 to 1000 nM. In the case of O=C(Nc1nc2ccccc2s1)N1CCN(C(=O)c2cccc(F)c2)CC1 [Compound 65, 4-(3-Fluoro-benzoyl)-piperazine-1-carboxylic acid benzothiazol-2-ylamide], the IC50 is reported as 11 to 100 nM. In the case of O=C(Nc1nc2ccc(F)cc2s1)N1CCN(C(=O)c2cccc(F)c2)CC1 [Compound 66, 4-(3-Fluoro-benzoyl)-piperazine-1-carboxylic acid (6-fluoro-benzothiazol-2-yl)-amide], the IC50 is reported as 11 to 100 nM. Work on O=C(Nc1nc2ccc(OC(F)(F)F)cc2s1)N1CCN(C(=O)c2cccc(F)c2)CC1 [Compound 67, 4-(3-Fluoro-benzoyl)-piperazine-1-carboxylic acid (6-trifluoromethoxy-benzothiazol-2-yl)-amide] yielded an IC50 of 11 to 100 nM. Work on O=C(Nc1nc2ccc(Br)cc2s1)N1CCN(C(=O)c2cccc(F)c2)CC1 [Compound 68, 4-(3-Fluoro-benzoyl)-piperazine-1-carboxylic acid (6-bromo-benzothiazol-2-yl)-amide] yielded an IC50 of 1 to 10 nM. With O=C(Nc1nc(-c2ccccc2)ns1)N1CCN(C(=O)c2cccc(F)c2)CC1 [Compound 70, 4-(3-Fluoro-benzoyl)-piperazine-1-carboxylic acid (3-phenyl-[1,2,4]thiadiazol-5-yl)-amide] the IC50 was 11 to 100 nM. In the case of O=C(Nc1nnc(-c2ccncc2)s1)N1CCN(C(=O)c2cccc(F)c2)CC1 [Compound 71, 4-(3-Fluoro-benzoyl)-piperazine-1-carboxylic acid (5-pyridin-4-yl[1,3,4]thiadiazol-2-yl)-amide], the IC50 is reported as 11 to 100 nM. Compound O=C(Nc1nnc(-c2ccccc2)o1)N1CCN(C(=O)c2cccc(F)c2)CC1 [Compound 72, 4-(3-Fluoro-benzoyl)-piperazine-1-carboxylic acid (5-phenyl-[1,3,4]oxadiazol-2-yl)-amide] has an IC50 of 11 to 100 nM. In the case of O=C(Nc1nc(-c2ccccn2)cs1)N1CCN(C(=O)c2cccc(F)c2)CC1 [Compound 73, 4-(3-Fluoro-benzoyl)-piperazine-1-carboxylic acid (4-pyridin-2-yl-thiazol-2-yl)-amide], the IC50 is reported as 11 to 100 nM. O=C(Nc1nc(-c2cccnc2)cs1)N1CCN(C(=O)c2cccc(F)c2)CC1 [Compound 74, 4-(3-Fluoro-benzoyl)-piperazine-1-carboxylic acid (4-pyridin-3-yl-thiazol-2-yl)-amide] gave an IC50 of 11 to 100 nM. O=C(Nc1nc(-c2ccncc2)cs1)N1CCN(C(=O)c2cccc(F)c2)CC1 [Compound 75, 4-(3-Fluoro-benzoyl)-piperazine-1-carboxylic acid (4-pyridin-4-yl-thiazol-2-yl)-amide] was tested, and the IC50 was 101 to 1000 nM. Cc1nc(-c2cccc(NC(=O)N3CCN(C(=O)c4cccc(F)c4)CC3)c2)cs1 [Compound 77, 4-(3-Fluoro-benzoyl)-piperazine-1-carboxylic acid [3-(2-methyl-thiazol-4-yl)-phenyl]-amide] showed an IC50 of 101 to 1000 nM. Cc1nccc(-c2cccc(NC(=O)N3CCN(C(=O)c4cccc(F)c4)CC3)c2)n1 [Compound 78, 4-(3-Fluoro-benzoyl)-piperazine-1-carboxylic acid [3-(2-methyl-pyrimidin-4-yl)-phenyl]-amide] gave an IC50 of 11 to 100 nM. In the case of Cc1cc2nc(NC(=O)N3CCN(C(=O)c4cccc(F)c4)CC3)sc2cc1C [Compound 79, 4-(3-Fluoro-benzoyl)-piperazine-1-carboxylic acid (5,6-dimethyl-benzothiazol-2-yl)-amide], the IC50 is reported as 1 to 10 nM. With Cc1ccc2nc(NC(=O)N3CCN(C(=O)c4cccc(F)c4)CC3)sc2c1 [Compound 80, 4-(3-Fluoro-benzoyl)-piperazine-1-carboxylic acid (6-methyl-benzothiazol-2-yl)-amide] the IC50 was 1 to 10 nM. COc1ccc2nc(NC(=O)N3CCN(C(=O)c4cccc(F)c4)CC3)sc2c1 [Compound 81, 4-(3-Fluoro-benzoyl)-piperazine-1-carboxylic acid (6-methoxy-benzothiazol-2-yl)-amide] gave an IC50 of 1 to 10 nM. With O=C(Nc1nc2ccc(Cl)cc2s1)N1CCN(C(=O)c2cccc(F)c2)CC1 [Compound 82, 4-(3-Fluoro-benzoyl)-piperazine-1-carboxylic acid (6-chloro-benzothiazol-2-yl)-amide] the IC50 was 1 to 10 nM. Work on CCOC(=O)c1ccc2nc(NC(=O)N3CCN(C(=O)c4cccc(F)c4)CC3)sc2c1 [Compound 83, 2-{[4-(3-Fluoro-benzoyl)-piperazine-1-carbonyl]-amino}-benzothiazole-6-carboxylic acid ethyl ester] yielded an IC50 of 11 to 100 nM.
